Measurements reported in ChEMBL document CHEMBL3286191, “Exploring structural motifs necessary for substrate binding in the active site of Escherichia coli pantothenate kinase” (Bioorg Med Chem, 2014).
Activity calls are given as the source filed them. The rule behind the calls is not given here.

Experiments:
Escherichia coli [1] = experiment: Ratio of kcat to Km for purified Escherichia coli pantothenate kinase by spectrophotometry
Escherichia coli [2] = experiment: Activity of purified Escherichia coli pantothenate kinase by spectrophotometry
Escherichia coli [3] = experiment: Activity of purified Escherichia coli pantothenate kinase up to 1 uM by spectrophotometry
Escherichia coli [4] = experiment: Inhibition of purified Escherichia coli pantothenate kinase using pantothenate as substrate at 0.625 to 20 mM by spectrophotometry

| Compound | kcat/Km (Escherichia coli [1]) [M⁻¹ s⁻¹] | Km (Escherichia coli [2]) [µM] | kcat (Escherichia coli [2]) [s⁻¹] | Activity (Escherichia coli [3]) | inhibition (Escherichia coli [4]) |
| --- | --- | --- | --- | --- | --- |
| CCCc1cn(CCCNC(=O)[C@H](O)C(C)(C)CO)nn1 | 500 | 1000 | 0.49 | – | – |
| CC(C)(CO)[C@@H](O)C(=O)NCCC(=O)NCCCn1ccnc1 | 21000 | 22 | 0.46 | – | – |
| CCCCCNC(CNC(=O)[C@H](O)C(C)(C)CO)C(=O)O (some centres not stated) | 300 | 700 | 0.23 | – | – |
| CC(C)(CO)[C@@H](O)C(=O)NCCC(=O)N1CCc2ccccc21 | 400 | 400 | 0.18 | – | – |
| C#CC[C@](C)(CO)[C@@H](O)C(=O)NCCC(=O)NCCCCC | 9000 | 110 | 1.04 | – | – |
| CC(C)(CO)[C@@H](O)C(=O)NCCC(=O)NCc1ccncc1 | 7000 | 130 | 0.94 | – | – |
| CC(C)(CO)[C@@H](O)C(=O)NCCC(=O)N1Cc2ccccc2C1 | 1900 | 200 | 0.45 | – | – |
| C=CC[C@](C)(CO)[C@@H](O)C(=O)NCCC(=O)NCCCCC | 1500 | 590 | 0.89 | – | – |
| CCCCCNC(=O)CNCCCNC(=O)[C@H](O)C(C)(C)CO | 100 | 1200 | 0.13 | – | – |
| CC(C)(CO)[C@@H](O)C(=O)NCCCNC(=N)Nc1ccc(Cl)cc1 | – | – | – | inactive | inactive |
| CCCCCn1cc(CNC(=O)[C@H](O)C(C)(C)CO)nn1 | 5100 | 190 | 0.96 | – | – |
| CC(C)(CO)[C@@H](O)C(=O)NCCC(=O)NCC1CCNCC1 | 500 | > 1000 | 1.19 | – | – |
| CCCCCNC(=O)CCNC(=O)[C@H](O)[C@@](C)(CO)CCCO | – | – | – | inactive | inactive |
| CC(C)(CO)[C@@H](O)C(=O)NCCC(=O)NCCCc1ccccc1 | 35000 | 32 | 1.13 | – | – |
| CC(C)(CO)[C@@H](O)C(=O)NCCS(=O)(=O)O | – | – | – | inactive | inactive |
| Cc1cccnc1NC(=O)CCNC(=O)[C@H](O)C(C)(C)CO | 20000 | 39 | 0.78 | – | – |
| C=CCC[C@](C)(CO)[C@@H](O)C(=O)NCCC(=O)NCCCCC | – | – | – | inactive | inactive |
| CC(C)(CO)[C@@H](O)C(=O)NCCC(=O)NCCS | 17000 | 60 | 1.03 | – | – |
| CC(C)(CO)[C@@H](O)C(=O)NCCC(=O)NCCc1ccccn1 | 11000 | 110 | 1.15 | – | – |

| Compound | kcat/Km (Escherichia coli [1]) [M⁻¹ s⁻¹] | Km (Escherichia coli [2]) [µM] | kcat (Escherichia coli [2]) [s⁻¹] | Activity (Escherichia coli [3]) | inhibition (Escherichia coli [4]) |
| --- | --- | --- | --- | --- | --- |
| CC(C)(CO)[C@@H](O)C(=O)NCCCOc1cc(Cl)ccc1Oc1ccc(Cl)cc1Cl | – | – | – | inactive | inactive |
| CCCC(=O)NCCNC(=O)CCNC(=O)[C@H](O)C(C)(C)CO | 4500 | 240 | 1.09 | – | – |
| CC(C)(CO)[C@@H](O)C(=O)NCCC(=O)Nc1ccncn1 | 3200 | 450 | 1.44 | – | – |
| CN(C)CCCNC(=O)CCNC(=O)[C@H](O)C(C)(C)CO | – | – | – | inactive | inactive |
| CC(C)(CO)[C@@H](O)C(=O)NCCC(=O)NCCN1CCNCC1 | 300 | > 1000 | 0.75 | – | – |
| CC(C)(CO)[C@@H](O)C(=O)NCCNC(=N)N | – | – | – | inactive | inactive |
| CC(C)(CO)[C@@H](O)C(=O)NCCC(=O)NCc1ccccc1 | 17000 | 67 | 1.15 | – | – |
| CCCCCNC(=O)CCNC(=O)[C@H](O)[C@](C)(CC)CO | 5100 | 230 | 1.17 | – | – |
| CC(C)(CO)[C@@H](O)C(=O)NCCC(=O)NCc1cccnc1 | 38000 | 33 | 1.24 | – | – |
| CN(C)CCCNCCCNC(=O)CCNC(=O)[C@H](O)C(C)(C)CO | – | – | – | inactive | inactive |
| CC(C)(CO)[C@@H](O)C(=O)NCCC(=O)Nc1cc(Cl)ccc1Oc1ccc(Cl)cc1Cl | – | – | – | inactive | inactive |
| CC(C)(CO)[C@@H](O)C(=O)NCCC(=O)NCc1ccccn1 | 20000 | 50 | 1.02 | – | – |
| CCCCCNC(=O)CCNC(=O)[C@H](O)C(C)(C)CO | 26000 | 36 | 0.93 | – | – |
| CC(C)(CO)[C@@H](O)C(=O)NCCC(=O)O | 50000 | 21 | 1.07 | – | – |
| CCCCCNC(=O)CCNC(=O)[C@H](O)C(CC)(CC)CO | 200 | 1200 | 0.28 | – | – |
| CC(C)(CO)[C@@H](O)C(=O)NCCC(=O)NCCCN1CCOCC1 | 2900 | 350 | 1.03 | – | – |
| CC(C)(CO)[C@@H](O)C(=O)NCCC(=O)Nc1ccccc1 | 24000 | 43 | 1.02 | – | – |
| CCCCCNC(=O)CNC(=O)CCNC(=O)[C@H](O)C(C)(C)CO | 10000 | 120 | 1.12 | – | – |
